Key:
Assay type in all cases: functional
Rattus norvegicus [1] = experiment: Antihypertensive activity rating in conscious SHR after 2 hr post dose at 50 mg/kg (po); Range 20-30%
Rattus norvegicus [2] = experiment: Antihypertensive activity in conscious spontaneously hypertensive rats 24 hr following 50 mg/kg p.o.; No significant reduction.; conditions: route oral
Rattus norvegicus [3] = species on record: Rattus norvegicus; experiment: Maximum percent decrease in blood pressure in SHR ( hour post dose in parentheses)
Rattus norvegicus [4] = experiment: Antihypertensive activity in conscious spontaneously hypertensive rats 10 hr following 50 mg/kg p.o.; Range 10-20%.; conditions: route oral
Rattus norvegicus [5] = experiment: Antihypertensive activity in conscious spontaneously hypertensive rats 10 hr following 50 mg/kg p.o.; No significant reduction.; conditions: route oral
Rattus norvegicus [6] = experiment: Antihypertensive activity rating in conscious SHR after 2 hr post dose at 50 mg/kg (po); Range 10-20%
Rattus norvegicus [7] = experiment: Antihypertensive activity rating in conscious SHR after 24 hr post dose at 50 mg/kg (po); Range 10-20%
Rattus norvegicus [8] = experiment: Antihypertensive activity rating in conscious SHR after 24 h post dose at 50 mg/kg (po); Range 20-30%
Rattus norvegicus [9] = experiment: Antihypertensive activity rating in conscious SHR after 10 hr post dose at 50 mg/kg (po); Range 20-30%
Rattus norvegicus [10] = experiment: Antihypertensive activity rating in conscious SHR after 24 h post dose at 10 mg/kg (po); Range 10-20%
Rattus norvegicus [11] = experiment: Antihypertensive activity rating in conscious SHR after 10 hr post dose at 10 mg/kg (po); 0=No significant reduction
Rattus norvegicus [12] = experiment: Antihypertensive activity rating in conscious SHR after 2 hr post dose at 10 mg/kg (po); 0=No significant reduction
Rattus norvegicus [13] = experiment: Antihypertensive activity in conscious spontaneously hypertensive rats 2 hr following 50 mg/kg p.o.; No significant reduction.; conditions: route oral
Rattus norvegicus [14] = experiment: Antihypertensive activity rating in conscious SHR after 24 h post dose at 10 mg/kg (po); 0=No significant reduction
Rattus norvegicus [15] = experiment: Antihypertensive activity rating in conscious SHR after 2 hr post dose at 10 mg/kg (po); Range 10-20%
Rattus norvegicus [16] = experiment: Antihypertensive activity rating in conscious SHR after 10 hr post dose at 10 mg/kg (po); Range 10-20%
Rattus norvegicus [17] = experiment: Antihypertensive activity rating in conscious SHR after 24-72 hr post dose at 10 mg/kg (po); Range 10-20%

SMILES | Activity rating (Rattus norvegicus [1]) [%] | Decrease (Rattus norvegicus [3]) [%] | Activity rating (Rattus norvegicus [4]) [%] | Activity rating (Rattus norvegicus [6]) [%] | Activity rating (Rattus norvegicus [7]) [%] | other results
C/N=C(\N)Nc1nc2nc(C)ncc2cc1-c1c(Cl)cccc1Cl | 20 | 24 | 10 | – | – | Activity rating (Rattus norvegicus [2]): 0%
CC(=O)Nc1nc2nc(C)nc(C)c2cc1-c1c(Cl)cccc1Cl | 20 | 20 | – | – | – | Activity rating (Rattus norvegicus [2]): 0%; Activity rating (Rattus norvegicus [5]): 0%
CNC(=O)Nc1nc2nc(C)ncc2cc1-c1c(Cl)cccc1Cl | 20 | 26 | 10 | – | – | Activity rating (Rattus norvegicus [2]): 0%
Cc1ncc2cc(-c3c(Cl)cccc3Cl)c(NC(=O)Cc3ccccc3)nc2n1 | – | 17 | 10 | 10 | 10 | –
Cc1ncc2cc(-c3c(Cl)cccc3Cl)c(NC(=O)c3ccccc3)nc2n1 | 20 | 30 | – | – | – | Activity rating (Rattus norvegicus [8]): 20%; Activity rating (Rattus norvegicus [9]): 20%
C/C(=N\c1nc2nc(C)ncc2cc1-c1c(Cl)cccc1Cl)N(C)C | – | 18 | – | 10 | 10 | Activity rating (Rattus norvegicus [5]): 0%
Cc1ncc2cc(-c3c(Cl)cccc3Cl)c(NC(=O)N(C)C)nc2n1 | – | 26 | 10 | 10 | – | Activity rating (Rattus norvegicus [8]): 20%
COCC(=O)Nc1nc2nc(C)ncc2cc1-c1c(Cl)cccc1Cl | 20 | 29 | – | – | – | Activity rating (Rattus norvegicus [10]): 10%; Activity rating (Rattus norvegicus [8]): 20%; Activity rating (Rattus norvegicus [11]): 0%; Activity rating (Rattus norvegicus [9]): 20%; Activity rating (Rattus norvegicus [12]): 0%
Cc1ncc2cc(-c3c(Cl)cccc3Cl)c(NC(=O)c3ccccc3C)nc2n1 | – | 23 | 10 | – | 10 | Activity rating (Rattus norvegicus [13]): 0%
Cc1ncc2cc(-c3c(Cl)cccc3Cl)c(NC(=O)CNC(=O)OCc3ccccc3)nc2n1 | – | 29 | – | 10 | 10 | Activity rating (Rattus norvegicus [14]): 0%; Activity rating (Rattus norvegicus [11]): 0%; Activity rating (Rattus norvegicus [9]): 20%; Activity rating (Rattus norvegicus [15]): 10%
Cc1ncc2cc(-c3c(Cl)cccc3Cl)c(/N=C/N(C)C)nc2n1 | – | 17 | 10 | – | 10 | Activity rating (Rattus norvegicus [13]): 0%
Cc1ncc2cc(-c3c(Cl)cccc3Cl)c(NC(=O)c3cccc(N(C)C)c3)nc2n1 | – | 15 | 10 | – | 10 | Activity rating (Rattus norvegicus [13]): 0%
Cc1ncc2cc(-c3c(Cl)cccc3Cl)c(NS(C)(=O)=O)nc2n1 | – | 22 | 10 | 10 | – | Activity rating (Rattus norvegicus [14]): 0%; Activity rating (Rattus norvegicus [8]): 20%; Activity rating (Rattus norvegicus [11]): 0%; Activity rating (Rattus norvegicus [12]): 0%
Cc1ncc2cc(-c3c(Cl)cccc3Cl)c(NC(=O)c3ccncc3)nc2n1 | – | 18 | – | – | – | Activity rating (Rattus norvegicus [10]): 10%; Activity rating (Rattus norvegicus [16]): 10%; Activity rating (Rattus norvegicus [15]): 10%
Cc1ncc2cc(-c3c(Cl)cccc3Cl)c(NC(=O)c3ccccn3)nc2n1 | – | 29 | – | 10 | – | Activity rating (Rattus norvegicus [8]): 20%; Activity rating (Rattus norvegicus [17]): 10%; Activity rating (Rattus norvegicus [16]): 10%; Activity rating (Rattus norvegicus [9]): 20%
C/N=C(\NC)Nc1nc2nc(C)ncc2cc1-c1c(Cl)cccc1Cl | 20 | 24 | 10 | – | – | Activity rating (Rattus norvegicus [2]): 0%
COc1ccccc1C(=O)Nc1nc2nc(C)ncc2cc1-c1c(Cl)cccc1Cl | – | – | – | – | – | Activity rating (Rattus norvegicus [14]): 0%; Activity rating (Rattus norvegicus [11]): 0%; Activity rating (Rattus norvegicus [12]): 0%
Cc1ncc2cc(-c3c(Cl)cccc3Cl)c(NC(=O)Cc3c(Cl)cccc3Cl)nc2n1 | – | – | – | – | – | Activity rating (Rattus norvegicus [14]): 0%; Activity rating (Rattus norvegicus [11]): 0%; Activity rating (Rattus norvegicus [12]): 0%

— ChEMBL document CHEMBL1122346, “Antihypertensive activity of 6-arylpyrido[2,3-d]pyrimidin-7-amine derivatives. 2. 7-Acyl amide analogues” (J Med Chem, 1983)
